Results taken from patent US20230108049A1, “ORAL FAST-DISPERSING DOSAGE FORM OF RIMEGEPANT” (BIOHAVEN PHARMACEUTICAL HOLDING COMPANY LTD., priority 2020, published 2023).

Legend:
[1] = Pharmacokinetics in other specific populations; format: in vivo, human; details: based on age, sex, race/ethnicity, body weight, or CYP2C9 genotype
healthy volunteers = assay: Resting blood pressure on concomitant administration with sumatriptan; format: in vivo, human; details: with sumatriptan 12 mg subcutaneous vs sumatriptan alone
From the text: The relationship between pharmacodynamic activity and the mechanism(s) by which rimegepant exerts its clinical effects is unknown.

pregnant rats = assay: Embryofetal development study, oral administration during organogenesis, rats; format: in vivo, rat
Description: Plasma exposures (AUC) at the no-effect dose (60 mg/kg/day) for adverse effects on embryofetal development were approximately 45 times that in humans at the maximum recommended human dose (MRHD) of 75 mg/day.

rat micronucleus = assay: Rat micronucleus assay (in vivo)
From the text: (§1) Rimegepant was negative in in vitro (bacterial reverse-mutation, chromosomal aberration in Chinese hamster ovary cells) and in vivo (rat micronucleus) assays.

pregnant rabbits = assay: Embryofetal development study, oral administration during organogenesis, rabbits; format: in vivo, rabbit
Description: The highest dose tested (50 mg/kg/day) was associated with plasma exposures (AUC) approximately 10 times that in humans at the MRHD.

CYP2B6 = assay: In vitro enzyme induction; format: in vitro ADME; details: at clinically relevant concentrations
From the text: (§2) Rimegepant is a substrate of CYP3A4 and CYP2C9 [see In Vivo Studies].

CYP3A4 [2] = assay: In vitro enzyme induction; format: in vitro ADME; details: at clinically relevant concentrations
From the text: as §2

CYP1A2 = assay: In vitro enzyme induction; format: in vitro ADME; details: at clinically relevant concentrations
From the text: as §2

rats [3] = assay: Carcinogenesis study, oral, 91-100 weeks, rats; format: in vivo, rat
CYP3A4 and CYP2C9 = assay: Dedicated drug interaction study with fluconazole (combined moderate CYP3A4 and CYP2C9 inhibitor); format: in vivo, human; details: 75 mg single dose with fluconazole
CYP3A4 [4] = target: T1, CYP3A4 (Homo sapiens, UniProt P08684); assay: Dedicated drug interaction study with rifampin (strong CYP3A4 inducer); format: in vivo; parameters: endogenous in cells; host or cells: in vivo, endogenous enzyme of the study subjects; details: 75 mg single dose with rifampin at steady state
T1 sequence (P08684 whole entry): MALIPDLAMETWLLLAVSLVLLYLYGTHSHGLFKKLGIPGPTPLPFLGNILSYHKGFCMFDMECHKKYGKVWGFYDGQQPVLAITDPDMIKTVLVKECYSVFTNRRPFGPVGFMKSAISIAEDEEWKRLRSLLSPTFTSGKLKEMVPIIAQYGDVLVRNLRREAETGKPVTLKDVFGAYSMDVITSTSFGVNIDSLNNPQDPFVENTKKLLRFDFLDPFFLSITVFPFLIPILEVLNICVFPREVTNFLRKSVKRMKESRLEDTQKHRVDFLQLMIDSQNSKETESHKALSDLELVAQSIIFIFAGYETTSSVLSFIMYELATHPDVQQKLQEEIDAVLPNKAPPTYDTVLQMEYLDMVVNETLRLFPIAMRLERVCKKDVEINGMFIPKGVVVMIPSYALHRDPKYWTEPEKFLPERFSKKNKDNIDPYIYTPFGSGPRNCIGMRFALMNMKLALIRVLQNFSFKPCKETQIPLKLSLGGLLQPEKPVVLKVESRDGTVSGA
Description: No dedicated drug interaction study was conducted to assess the effect of concomitant administration of a moderate or weak inducer of CYP3A4 on the pharmacokinetics of rimegepant.

[5] = test system: Chinese hamster ovary cells; assay: Chromosomal aberration assay (in vitro); format: cell-based
From the text: as §1

CYP3A4 [6] = target: T1, CYP3A4; assay: Dedicated drug interaction study with itraconazole (strong CYP3A4 inhibitor); format: in vivo; parameters: endogenous in cells; host or cells: in vivo, endogenous enzyme of the study subjects; details: 75 mg single dose with itraconazole at steady state
Plasma protein binding = format: in vitro ADME
From the text: The steady state volume of distribution of rimegepant is 120 L. Plasma protein binding of rimegepant is approximately 96%.

OCT2 = OCT2 (Homo sapiens, UniProt O15244); assay: In vitro transporter inhibition; format: in vitro ADME
From the text: (§3) Rimegepant is an inhibitor of OATP1B3, OCT2, and MATE1. No clinical drug interactions are expected for NURTEC ODT with these transporters at clinically relevant concentrations.

OAT3 = OAT3 (Homo sapiens, UniProt Q8TCC7); assay: In vitro transporter inhibition; format: in vitro ADME
Chain of OAT3 (Q8TCC7 whole entry): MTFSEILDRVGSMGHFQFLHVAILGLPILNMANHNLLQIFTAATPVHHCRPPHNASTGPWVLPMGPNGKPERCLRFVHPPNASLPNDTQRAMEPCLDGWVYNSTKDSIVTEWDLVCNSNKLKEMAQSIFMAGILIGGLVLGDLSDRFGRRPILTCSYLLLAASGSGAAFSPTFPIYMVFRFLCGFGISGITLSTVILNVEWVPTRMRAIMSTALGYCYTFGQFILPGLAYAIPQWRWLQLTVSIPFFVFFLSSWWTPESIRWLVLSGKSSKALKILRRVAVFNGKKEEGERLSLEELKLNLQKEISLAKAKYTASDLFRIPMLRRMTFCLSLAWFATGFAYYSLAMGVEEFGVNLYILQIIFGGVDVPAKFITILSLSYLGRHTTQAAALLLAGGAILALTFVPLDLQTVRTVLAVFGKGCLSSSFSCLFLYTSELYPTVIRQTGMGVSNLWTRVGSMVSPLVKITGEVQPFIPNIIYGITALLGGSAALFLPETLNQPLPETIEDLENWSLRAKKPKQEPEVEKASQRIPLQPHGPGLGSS
From the text: as §3

OAT1 = OAT1 (Homo sapiens, UniProt Q4U2R8); assay: In vitro transporter inhibition; format: in vitro ADME; details: at clinically relevant concentrations
Chain of OAT1 (Q4U2R8 whole entry): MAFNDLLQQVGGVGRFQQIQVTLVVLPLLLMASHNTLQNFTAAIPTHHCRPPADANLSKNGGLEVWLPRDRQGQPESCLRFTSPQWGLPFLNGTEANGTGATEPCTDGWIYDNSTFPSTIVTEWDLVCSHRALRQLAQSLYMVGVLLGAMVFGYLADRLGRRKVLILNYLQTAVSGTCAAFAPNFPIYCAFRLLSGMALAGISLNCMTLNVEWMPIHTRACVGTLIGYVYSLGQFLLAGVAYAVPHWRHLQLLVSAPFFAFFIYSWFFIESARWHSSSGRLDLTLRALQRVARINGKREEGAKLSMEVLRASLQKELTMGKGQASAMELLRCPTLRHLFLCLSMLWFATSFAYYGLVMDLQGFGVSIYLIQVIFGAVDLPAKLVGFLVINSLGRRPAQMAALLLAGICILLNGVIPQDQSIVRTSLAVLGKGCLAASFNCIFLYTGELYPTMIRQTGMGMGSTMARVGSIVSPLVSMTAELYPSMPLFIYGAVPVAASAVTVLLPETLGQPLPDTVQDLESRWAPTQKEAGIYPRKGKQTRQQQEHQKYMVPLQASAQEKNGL
From the text: as §3

OATP1B3 [7] = target: T2, OATP1B3 (Homo sapiens, UniProt Q9NPD5); assay: In vitro transporter inhibition; format: in vitro ADME
T2 sequence (Q9NPD5 whole entry): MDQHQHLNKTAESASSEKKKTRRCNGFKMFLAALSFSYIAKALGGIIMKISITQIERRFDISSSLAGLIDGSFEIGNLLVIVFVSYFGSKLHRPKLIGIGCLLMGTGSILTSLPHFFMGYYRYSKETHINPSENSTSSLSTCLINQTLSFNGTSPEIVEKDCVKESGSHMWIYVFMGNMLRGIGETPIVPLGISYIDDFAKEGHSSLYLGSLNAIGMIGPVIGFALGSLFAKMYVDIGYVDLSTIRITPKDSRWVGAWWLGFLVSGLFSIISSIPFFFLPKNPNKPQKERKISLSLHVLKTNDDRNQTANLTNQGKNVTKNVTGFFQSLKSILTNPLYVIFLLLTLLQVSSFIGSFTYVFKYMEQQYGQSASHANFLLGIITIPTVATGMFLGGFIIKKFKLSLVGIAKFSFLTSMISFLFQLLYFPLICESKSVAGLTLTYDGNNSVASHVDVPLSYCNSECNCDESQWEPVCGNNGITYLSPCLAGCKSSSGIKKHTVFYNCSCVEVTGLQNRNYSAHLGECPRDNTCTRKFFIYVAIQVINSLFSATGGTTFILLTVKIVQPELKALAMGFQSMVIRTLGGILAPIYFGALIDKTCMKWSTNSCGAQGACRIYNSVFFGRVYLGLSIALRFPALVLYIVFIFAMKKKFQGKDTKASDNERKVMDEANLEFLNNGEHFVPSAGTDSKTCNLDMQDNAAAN
From the text: as §3

MATE1 = MATE1 (Homo sapiens, UniProt Q96FL8); assay: In vitro transporter inhibition; format: in vitro ADME
From the text: as §3

BCRP [8] = target: T3, BCRP (Homo sapiens, UniProt Q9UNQ0); assay: In vitro transporter substrate study; format: in vitro ADME
T3 sequence (Q9UNQ0 whole entry): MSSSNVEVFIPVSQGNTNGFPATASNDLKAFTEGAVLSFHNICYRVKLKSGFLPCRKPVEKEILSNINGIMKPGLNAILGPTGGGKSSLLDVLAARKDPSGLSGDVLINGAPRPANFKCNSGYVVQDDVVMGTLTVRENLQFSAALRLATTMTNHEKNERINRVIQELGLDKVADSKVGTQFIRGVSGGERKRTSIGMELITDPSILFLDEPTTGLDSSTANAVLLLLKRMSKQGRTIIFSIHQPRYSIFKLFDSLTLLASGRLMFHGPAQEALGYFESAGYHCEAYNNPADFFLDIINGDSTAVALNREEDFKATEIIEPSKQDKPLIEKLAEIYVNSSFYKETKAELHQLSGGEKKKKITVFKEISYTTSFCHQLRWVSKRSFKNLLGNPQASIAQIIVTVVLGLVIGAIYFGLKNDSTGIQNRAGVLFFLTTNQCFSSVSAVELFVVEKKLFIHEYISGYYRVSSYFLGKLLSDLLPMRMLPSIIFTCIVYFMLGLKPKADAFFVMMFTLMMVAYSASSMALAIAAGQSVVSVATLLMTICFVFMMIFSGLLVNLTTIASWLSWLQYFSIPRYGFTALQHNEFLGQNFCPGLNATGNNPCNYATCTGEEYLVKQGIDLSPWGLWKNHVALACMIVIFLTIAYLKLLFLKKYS
Description: (§4) Rimegepant is a substrate of P-gp and BCRP. Concomitant administration of inhibitors of P-gp or BCRP may increase the exposure of rimegepant [see Drug Interactions]. No dedicated drug interaction study was conducted to assess their effects on the pharmacokinetics of rimegepant.

P-gp [9] = target: T4, P-gp (Homo sapiens, UniProt P08183); assay: In vitro transporter substrate study; format: in vitro ADME
T4 sequence (P08183 whole entry): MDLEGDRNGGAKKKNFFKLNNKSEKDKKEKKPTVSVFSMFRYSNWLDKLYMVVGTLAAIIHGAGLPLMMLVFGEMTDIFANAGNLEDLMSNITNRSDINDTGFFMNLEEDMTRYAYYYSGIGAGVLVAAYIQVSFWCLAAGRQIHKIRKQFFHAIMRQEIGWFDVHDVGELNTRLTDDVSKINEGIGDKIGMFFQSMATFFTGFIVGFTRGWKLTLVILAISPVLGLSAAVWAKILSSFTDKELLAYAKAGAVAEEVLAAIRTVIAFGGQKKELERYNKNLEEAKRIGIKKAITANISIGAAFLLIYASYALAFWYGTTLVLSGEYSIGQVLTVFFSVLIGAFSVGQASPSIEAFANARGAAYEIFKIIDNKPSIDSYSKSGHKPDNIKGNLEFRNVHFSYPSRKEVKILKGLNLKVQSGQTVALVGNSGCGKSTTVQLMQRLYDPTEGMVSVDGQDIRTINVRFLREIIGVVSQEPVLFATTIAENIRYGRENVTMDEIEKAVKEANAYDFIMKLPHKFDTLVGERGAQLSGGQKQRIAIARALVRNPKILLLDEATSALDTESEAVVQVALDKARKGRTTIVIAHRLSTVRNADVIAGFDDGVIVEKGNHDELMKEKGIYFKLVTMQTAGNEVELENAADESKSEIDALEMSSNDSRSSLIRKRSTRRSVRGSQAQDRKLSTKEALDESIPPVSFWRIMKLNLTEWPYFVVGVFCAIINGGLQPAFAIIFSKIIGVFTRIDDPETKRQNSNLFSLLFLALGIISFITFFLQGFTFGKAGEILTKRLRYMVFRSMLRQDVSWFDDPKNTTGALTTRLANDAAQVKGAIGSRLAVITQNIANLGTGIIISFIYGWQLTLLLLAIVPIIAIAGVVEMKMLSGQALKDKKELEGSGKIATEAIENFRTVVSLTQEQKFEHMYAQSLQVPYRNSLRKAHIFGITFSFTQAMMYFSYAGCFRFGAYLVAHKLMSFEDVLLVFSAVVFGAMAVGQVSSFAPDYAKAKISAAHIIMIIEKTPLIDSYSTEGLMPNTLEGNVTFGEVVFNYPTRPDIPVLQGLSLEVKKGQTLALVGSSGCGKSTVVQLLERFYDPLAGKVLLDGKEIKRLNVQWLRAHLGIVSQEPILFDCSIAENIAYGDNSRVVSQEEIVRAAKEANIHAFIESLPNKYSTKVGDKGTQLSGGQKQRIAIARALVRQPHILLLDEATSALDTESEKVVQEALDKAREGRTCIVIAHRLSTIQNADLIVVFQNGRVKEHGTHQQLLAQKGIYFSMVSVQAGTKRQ
Description: as §4

rats [10] = assay: Second fertility study, rats, lower doses (0, 5, 15, or 25 mg/kg/day); format: in vivo, rat
BCRP [11] = target: T3, BCRP; assay: In vitro transporter inhibition; format: in vitro ADME; details: at clinically relevant concentrations
[12] = Cardiac electrophysiology (QT interval); format: in vivo, human; details: single dose 4 times the recommended dose
OATP1B1 = OATP1B1 (Homo sapiens, UniProt Q9Y6L6); assay: In vitro transporter substrate study; format: in vitro ADME
Chain of OATP1B1 (Q9Y6L6 whole entry): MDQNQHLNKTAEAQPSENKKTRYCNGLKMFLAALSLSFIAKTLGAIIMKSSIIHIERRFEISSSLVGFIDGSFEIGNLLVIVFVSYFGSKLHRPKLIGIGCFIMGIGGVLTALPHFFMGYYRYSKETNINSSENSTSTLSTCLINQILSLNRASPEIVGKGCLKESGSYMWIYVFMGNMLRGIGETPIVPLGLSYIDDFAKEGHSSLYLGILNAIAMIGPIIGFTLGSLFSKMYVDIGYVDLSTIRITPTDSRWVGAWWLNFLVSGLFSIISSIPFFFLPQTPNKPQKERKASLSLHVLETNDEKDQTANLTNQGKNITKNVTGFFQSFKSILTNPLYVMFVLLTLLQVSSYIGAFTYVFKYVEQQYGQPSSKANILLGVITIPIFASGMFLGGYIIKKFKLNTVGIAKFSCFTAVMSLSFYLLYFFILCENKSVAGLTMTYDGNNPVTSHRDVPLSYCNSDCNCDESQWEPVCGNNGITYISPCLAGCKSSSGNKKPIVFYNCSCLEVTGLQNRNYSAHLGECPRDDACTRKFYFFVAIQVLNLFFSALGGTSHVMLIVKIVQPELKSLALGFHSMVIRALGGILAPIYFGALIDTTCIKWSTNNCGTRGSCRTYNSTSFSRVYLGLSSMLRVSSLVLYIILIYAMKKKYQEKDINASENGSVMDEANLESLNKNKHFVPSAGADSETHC
From the text: (§5) Considering its low renal clearance, rimegepant was not evaluated as a substrate of the OAT1, OAT3, OCT2, MATE1, or MATE2-K.

OATP1B3 [13] = target: T2, OATP1B3; assay: In vitro transporter substrate study; format: in vitro ADME
From the text: as §5

P-gp [14] = target: T4, P-gp; assay: In vitro transporter inhibition; format: in vitro ADME; details: at clinically relevant concentrations
male and female rats = assay: Fertility study, oral, male and female rats (0, 30, 60, or 150 mg/kg/day); format: in vivo, rat

N[C@@H]1c2cccnc2[C@H](OC(=O)N2CCC(n3c(=O)[nH]c4ncccc43)CC2)CC[C@H]1c1cccc(F)c1F [rimegepant, (5S,6S,9R)-5-amino-6-(2,3-difluorophenyl)-6,7,8,9-tetrahydro-5H-cyclohepta[b]pyridin-9-yl 4-(2-oxo-2,3-dihydro-1H-imidazo[4,5-b]pyridin-1-yl)-1-piperidinecarboxylate]
differences in pharmacokinetics [1]: No clinically significant differences | resting blood pressure (healthy volunteers): No clinically relevant differences in resting blood pressure | plasma exposure (AUC) relative to humans at the MRHD of 75 mg/day (pregnant rats; at the no-effect dose (60 mg/kg/day)): approximately 45 times | effects on embryofetal development (pregnant rats; highest dose tested (300 mg/kg/day), oral, associated with maternal toxicity): decreased fetal body weight and an increased incidence of fetal variations | no-effect dose for adverse effects on embryofetal development (pregnant rats; oral, pregnant rats): 60 mg/kg/day | mutagenesis, rat micronucleus (rat micronucleus): negative | effects on embryofetal development (pregnant rabbits; 0, 10, 25, or 50 mg/kg/day oral): no adverse effects on embryofetal development | plasma exposure (AUC) relative to humans at the MRHD (pregnant rabbits; highest dose tested (50 mg/kg/day)): approximately 10 times | induction of CYP2B6 (CYP2B6): not an inducer | induction of CYP3A4 (CYP3A4 [2]): not an inducer | induction of CYP1A2 (CYP1A2): not an inducer | plasma exposure (AUC) relative to humans at the MRHD of 75 mg/day (rats [3]; highest dose tested (45 mg/kg/day)): approximately 30 times | drug-induced tumors (rats [3]; oral 0, 5, 20, or 45 mg/kg/day for 91-100 weeks): no evidence of drug-induced tumors | effect on rimegepant Cmax (CYP3A4 and CYP2C9): no relevant effect | increase of rimegepant AUC (CYP3A4 and CYP2C9): 1.8 fold | decrease of rimegepant AUC (CYP3A4 [4]): 80% | decrease of rimegepant Cmax (CYP3A4 [4]): 64% | mutagenesis, chromosomal aberration [5]: negative | increase of rimegepant AUC (CYP3A4 [6]): 4 fold | increase of rimegepant Cmax (CYP3A4 [6]): ~1.5 fold | fraction unbound (Plasma protein binding): ~0.04 | inhibition of OCT2 (OCT2): inhibitor | inhibition of OAT3 (OAT3): weak inhibitor | inhibition of OAT1 (OAT1): not an inhibitor | inhibition of OATP1B3 (OATP1B3 [7]): inhibitor | inhibition of MATE1 (MATE1): inhibitor | substrate of BCRP (BCRP [8]): substrate | substrate of P-gp (P-gp [9]): substrate | effects on fertility, uterine histopathology, early embryonic development (rats [10]; 0, 5, 15, or 25 mg/kg/day): no adverse effects on fertility, uterine histopathology, or early embryonic development | plasma drug exposures (AUC) relative to humans at the MRHD (rats [10]; at the no-effect dose (25 mg/kg/day)): approximately 15 times | no-effect dose for impairment of fertility and early embryonic development (rats [10]; rats): 25 mg/kg/day | inhibition of BCRP (BCRP [11]): not an inhibitor | QT interval prolongation [12]: does not prolong the QT interval to any clinically relevant extent | substrate of OATP1B1 (OATP1B1): not a substrate | substrate of OATP1B3 (OATP1B3 [13]): not a substrate | inhibition of P-gp (P-gp [14]): not an inhibitor | fertility (male and female rats; highest dose tested (150 mg/kg/day)): reduced fertility at the highest dose tested | uterine histopathology (male and female rats; oral 30, 60, or 150 mg/kg/day, prior to and during mating, females to GD 7): uterine atrophy at all doses
